Test results: ChEMBL document CHEMBL6127139, “Lysine-Targeted Covalent Inhibitors of PI3Kδ Synthesis and Screening by In Situ Interaction Upgradation” (J Med Chem, 2024)
The source made the active and inactive calls. The calls are words filed in the database; no cut-off is given here.

Columns and labels:
[1] = target: T1, Phosphatidylinositol 4,5-bisphosphate 3-kinase catalytic subunit delta isoform (Homo sapiens) (UniProt O00329); assay: Covalent inhibition of PI3Kdelta (unknown origin) using PIP2:3PS as substrate assessed as rate constant for irreversible inactivation (Kinact) incubated upto 180 mins in presence of ATP by ADP-Glo reagent based assay
T1 sequence (whole entry): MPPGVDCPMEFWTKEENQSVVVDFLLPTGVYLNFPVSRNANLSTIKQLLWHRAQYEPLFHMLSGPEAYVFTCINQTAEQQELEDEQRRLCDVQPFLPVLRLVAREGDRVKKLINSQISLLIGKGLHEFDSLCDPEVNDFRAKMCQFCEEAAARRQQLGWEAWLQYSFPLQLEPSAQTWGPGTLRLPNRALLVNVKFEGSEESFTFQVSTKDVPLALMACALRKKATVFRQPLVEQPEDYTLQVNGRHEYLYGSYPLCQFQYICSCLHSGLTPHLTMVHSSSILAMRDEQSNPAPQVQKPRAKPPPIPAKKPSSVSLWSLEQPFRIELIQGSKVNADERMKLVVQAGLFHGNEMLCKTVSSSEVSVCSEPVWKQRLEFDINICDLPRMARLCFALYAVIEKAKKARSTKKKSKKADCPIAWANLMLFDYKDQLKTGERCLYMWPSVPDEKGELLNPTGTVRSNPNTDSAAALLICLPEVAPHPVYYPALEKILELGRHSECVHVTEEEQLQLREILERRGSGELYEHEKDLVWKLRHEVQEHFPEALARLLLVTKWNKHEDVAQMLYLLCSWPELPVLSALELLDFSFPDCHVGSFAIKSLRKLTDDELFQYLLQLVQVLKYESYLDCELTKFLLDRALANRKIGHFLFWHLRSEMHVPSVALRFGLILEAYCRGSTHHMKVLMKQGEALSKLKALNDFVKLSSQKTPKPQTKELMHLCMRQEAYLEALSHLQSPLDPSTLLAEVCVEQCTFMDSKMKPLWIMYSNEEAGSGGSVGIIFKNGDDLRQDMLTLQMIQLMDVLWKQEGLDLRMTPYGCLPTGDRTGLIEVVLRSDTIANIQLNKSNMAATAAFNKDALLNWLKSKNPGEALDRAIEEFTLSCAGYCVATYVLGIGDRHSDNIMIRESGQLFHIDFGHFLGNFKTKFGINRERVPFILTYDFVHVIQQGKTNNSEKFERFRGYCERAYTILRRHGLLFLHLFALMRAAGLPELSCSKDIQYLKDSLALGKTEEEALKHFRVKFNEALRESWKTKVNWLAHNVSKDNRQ

[2] = target: T1, Phosphatidylinositol 4,5-bisphosphate 3-kinase catalytic subunit delta isoform (Homo sapiens); assay: Induction of thermal stabilization of PI3Kdelta in human SU-DHL-6 cells at 1 uM preincubated for 30 mins followed by incubated under 40 to 75 degreeC for 3 mins by CETSA; type: cell-based; conditions: time 33.0 min
[3] = Growth inhibition of PI3Kdelta-overexpressing human SU-DHL-6 cells incubated for 72 hrs by MTT assay; type: functional
[4] = Stability of compound in PBS at pH 7.4 incubated for 24 hrs at 37 degreeC by HPLC analysis; type: physicochemical; conditions: buffer, pH 7.4, 24 h
[5] = Selectivity index, ratio of IC50 for inhibition of recombinant PI3Kalpha (unknown origin) using PIP2:3PS as substrate to IC50 for inhibition of recombinant PI3Kdelta (unknown origin) using PIP2:3PS as substrate
[6] = Selectivity index, ratio of IC50 for inhibition of recombinant PI3Kgamma (unknown origin) using PIP2:3PS as substrate to IC50 for inhibition of recombinant PI3Kdelta (unknown origin) using PIP2:3PS as substrate
[7] = target: T2, Phosphatidylinositol 4,5-bisphosphate 3-kinase catalytic subunit delta isoform (Homo sapiens, UniProt O00329); assay: Covalent inhibition of PI3Kdelta (unknown origin) using PIP2:3PS as substrate assessed as inhibition constant incubated upto 180 mins in presence of ATP by ADP-Glo reagent based assay
T2 sequence (O00329 whole entry): T1 sequence (whole entry)

[8] = system: SU-DHL-6; assay: Induction of apoptosis in human SU-DHL-6 cells assessed as early apoptotic cells at 0.1 uM incubated for 48 hrs by Annexin V-FITC/PI staining based flow cytometric analysis (reference value: 5.02 %); type: functional
[9] = Toxicity in male nude mouse xenografted with human SU-DHL-6 cells assessed as change in body weight at 5 to 30 mg/kg/day, po administered for 14 days; type: organism-based; conditions: in vivo, 336 h, dose 5-30 mg/kg/day, time 14 day
[10] = system: SU-DHL-6; assay: Induction of apoptosis in human SU-DHL-6 cells assessed as necrotic cells at 1 uM incubated for 48 hrs by Annexin V-FITC/PI staining based flow cytometric analysis (reference value: 1.05 %); type: functional
[11] = system: Mus musculus; assay: In vivo inhibition of PI3K signaling pathway in male nude mouse xenografted with human SU-DHL-6 cells assessed as reduction in AKT phosphorylation in tumor at 5 to 30 mg/kg/day, po administered for 14 days by Western blot analysis; type: functional, organism-based; conditions: dose 5-30 mg/kg/day, time 14.0 day
[12] = system: SU-DHL-6; assay: Induction of apoptosis in human SU-DHL-6 cells assessed as early apoptotic cells at 0.01 uM incubated for 48 hrs by Annexin V-FITC/PI staining based flow cytometric analysis (reference value: 5.02 %); type: functional
[13] = system: SU-DHL-6; assay: Induction of apoptosis in human SU-DHL-6 cells assessed as viable cells at 0.01 uM incubated for 48 hrs by Annexin V-FITC/PI staining based flow cytometric analysis (reference value: 89.81 %); type: functional; conditions: read-out: Activity
[14] = system: HCT-116; assay: Growth inhibition of human HCT-116 cells incubated for 72 hrs by MTT assay; type: functional
[15] = Chemical reactivity of the compound with N-Boc-Lysine assessed as half-life at 1 uM by HPLC analysis; type: physicochemical; conditions: incubation with N-Boc-Lysine
[16] = Growth inhibition of PI3Kdelta-overexpressing human Pfeiffer cells incubated for 72 hrs by MTT assay; type: functional
[17] = system: SU-DHL-6; assay: Induction of apoptosis in human SU-DHL-6 cells assessed as late apoptotic cells at 0.1 uM incubated for 48 hrs by Annexin V-FITC/PI staining based flow cytometric analysis (reference value: 4.12 %); type: functional
[18] = system: SU-DHL-6; assay: Induction of apoptosis in human SU-DHL-6 cells assessed as late apoptotic cells at 1 uM incubated for 48 hrs by Annexin V-FITC/PI staining based flow cytometric analysis (reference value: 4.12 %); type: functional
[19] = Selectivity index, ratio of IC50 for inhibition of recombinant PI3Kbeta (unknown origin) using PIP2:3PS as substrate to IC50 for inhibition of recombinant PI3Kdelta (unknown origin) using PIP2:3PS as substrate
[20] = system: SU-DHL-6; assay: Antitumor activity against human SU-DHL-6 cells xenografted in male nude mouse assessed as tumor growth inhibition at 30 mg/kg/day, po administered for 14 days relative to control; type: functional; conditions: SU-DHL-6, 336 h, time 14 day, read-out: TGI
[21] = system: MCF7; assay: Growth inhibition of human MCF7 cells incubated for 72 hrs by MTT assay; type: functional
[22] = target: T2, Phosphatidylinositol 4,5-bisphosphate 3-kinase catalytic subunit delta isoform; assay: Inhibition of recombinant PI3Kdelta (unknown origin) using PIP2:3PS as substrate preincubated for 20 mins followed by ATP addition and measured after 1 hrs by ADP-Glo reagent based assay

Question: For `COc1ncc(-c2ccc3ncnc(N[C@H]4CCN(C(=O)C5CCOCC5)C4)c3n2)cc1C(=O)Oc1ccccc1`, which Kinact [1] is on record?
Answer: The Kinact was 0.02 min⁻¹.

Question: What about the Activity [2] of the same molecule?
Answer: The Activity was “Active”.

Question: What about the GI50 [3] of the same molecule?
Answer: The GI50 was 2 nM.

Question: What about the Stability [4] of the same molecule?
Answer: Its Stability is “Stable”.

Question: And the Ratio IC50 [5]?
Answer: The Ratio IC50 was over 1000.

Question: And the Ratio IC50 [6]?
Answer: Its Ratio IC50 is 359.

Question: And the Ki [7]?
Answer: The Ki was 1.85 nM.

Question: And the Activity [8]?
Answer: The Activity was 17.68%.

Question: And the Activity [9]?
Answer: Its Activity is “Non-Toxic”.

Question: What about the Activity [10] of the same molecule?
Answer: Its Activity is 1.57%.

Question: What about the inhibition [11] of the same molecule?
Answer: The inhibition was “Active”.

Question: What about the Activity [12] of the same molecule?
Answer: Its Activity is 10.3%.

Question: What about the viability at 0.01 µM [13] of the same molecule?
Answer: Its viability at 0.01 µM is 85%.

Question: What about the GI50 [14] of the same molecule?
Answer: The GI50 was 1350 nM.

Question: And the half-life at 1 µM [15]?
Answer: The half-life at 1 µM was 2.82 h.

Question: And the GI50 [16]?
Answer: Its GI50 is 102 nM.

Question: What about the Activity [17] of the same molecule?
Answer: The Activity was 15.06%.

Question: What about the Activity [18] of the same molecule?
Answer: The Activity was 20.35%.

Question: And the Ratio IC50 [19]?
Answer: The Ratio IC50 was 753.

Question: What about the inhibition in vivo at 30 mg/kg/day [20] of the same molecule?
Answer: Its inhibition in vivo at 30 mg/kg/day is 95%.

Question: What about the GI50 [21] of the same molecule?
Answer: Its GI50 is over 10000 nM.

Question: What about the IC50 [22] of the same molecule?
Answer: Its IC50 is 0.27 nM.
